According to patent US9259433B2, “Synergistic antiviral compositions comprising a viral attachment inhibitor, an integration inhibitor, and a proviral transcription inhibitor, and their use” (priority 2007, dated 2016):
Like-named read-outs stand apart in the source and are kept apart here.

Experiments:
red blood cells = test: Hemolysis, release of hemoglobin from red blood cells; assay type: cell-based
Procedure: As such, Rev-1 and Gen-1 are both hemolytic, a property which may restrict potential use in therapy. To see whether modification of C28 sugar side chain can abolish such hemolytic effect, we acetylated the hydroxyl group of the C28 sugars with acetic anhydride. Briefly, 10 ml of pyridine and 5 ml acetic anhydride were added to a solution of pure tieghemella (Gen-1, 100 mg) in 5 ml methanol at 0° C. The solution mixture was allowed to reflux for […]. The resultant mixture was extracted with water at 20° C. as described in reference 9. The aqueous solution was washed several times with dichloromethane. The water filtrate was dried under the hood to afford oAc-Gen-1; (160 mg). We compared the hemolytic effect of Gen-1 and oAc-Gen-1 by measuring the release of hemoglobin from red blood cells in the presence of Gen.1 or o-Ac Gen.

wild type HIV-1 envelope = test: HIV-based cell-cell fusion (syncytium) assay, co-culture of HeLa-CD4+ cells and CHO-WT cells; settings: for antiviral entry activity: HIV entry / syncytium formation
Excerpt: Tieghemella heckelii (Sapotaceae, Th) is a large tree found in the West African rain forest. In January and February, the plant blossoms and develops ovoid fruits of 8 cm length and 7 cm diameter, which ripen in July-October. Many parts of the tree are used in traditional medicine. We have used a series of high-speed counter-current chromatography (HSCC), viral entry and infectivity assay and HIV-based cell-cell fusion assay to isolate specific HIV viral entry inhibitors from the ovoid fruits of the plants. The procedures for the isolation have been described in detail (4). Two pure saponin compounds, Arganine C (Rev 1) and Tieghemella (Gen. 1) have been isolated with the yield of 0.48% and 0.6% respectively.
In HIV infection, syncytia are the result of viral attachment and cell membrane fusion which create giant multi-nucleated cells consisting of both infected and uninfected cells. Rev. 1 and Gen. […] Rev-1 and Gen-1 are structurally identical except for one attached group at C23 (FIG. 1A). C23 glucose for Rev-1 and glucuronic acid for Gen-1 (4, 5). Their antiviral activity requires the C28 sugar chain. […] The four sugars in the substituent at the C28 position are L-arabinose, L-rhamnose, D-xylose and L-rhamnose (FIG. 1B).

HIV particles = test: HIV-1 attachment to pre-cooled HeLa CD4+ cells, viral capsid in cell lysates; settings: HeLa CD4+ cells at 4° C., 30-minute attachment, up to 20 μM
Procedure: To determine whether the two saponins act exclusively at the attachment step, target HeLa CD4^+ cells were initially pre-cooled at 4° C. before viral exposure to exclude the possibility of virus internalization. Each compound, at graded concentrations, was then mixed with HIV particles and added to target cells in cold media. After a 30-minute attachment period, the cells were profusely washed to remove unbound virus. […] H9 cells (4×10^5) were first incubated with compound and then infected with virus for one hour at 37° C. in CO2 incubator to permit virus fusion and entry. The cells were then centrifuged and washed 3 times with phosphate buffered saline (PBS) to remove the unbound virus as described previously (6,7). The viral entry was determined by p24 antigen-capture assay. For the drug effect on HIV-1 replication and infection, the culture was incubated for 8 days. Viral replication was determined by the amount of HIV-1 p24 antigen in culture supernatant after 8 days of virus infection in H9 cells using the HIV/p24 monoclonal antibody assay (8). […] Only low concentrations were used for testing to minimize the cellular toxicities of the drug.

HIV transcription = settings: cited from earlier work
[1] = test system: Sp1 binding sites of the HIV long terminal repeat (LTR); settings: in vitro; cited from earlier work
[2] = test system: HIV-1RTMF (AZT-resistant virus); test: HIV replication in infected H9 cells, HIV/p24 monoclonal antibody assay; assay type: cell-based; settings: H9 cells infected with HIV-1RTMF in the presence of drug
Procedure: The inhibitory effect of M522 and M532 against HIV replication was further examined using 5 different strains of HIV-1, drug resistant and primary isolates in the presence of a variety of drug concentrations in infected H9 cells.
(§1) A series of drug concentrations ranging from 1.25 μg/ml to 160 μg/ml were used for testing the cytotoxicity of M522 and M532 in H9 cells, using the MTT assay to determine the viability of H9 cells in culture.

H9 cells = assay type: cell-based; settings: 192 h
Procedure: as §1, with “culture. […] In fact, the drug-protected, HIV-infected H9 cells appeared to be morphologically identical to the uninfected control cells (6).” for “culture.”
(§2) Similarly, PBMC cells were isolated from a healthy blood sample and these cells were stimulated by PHA and IL-2. PBMC (5×10^6/ml) were infected with HIV-1RTMF. The cells were treated with three combinations of drugs, M522, Gen-1 and G4N. Fresh media and drugs were added after 4 days with drug concentrations 0, 1.25, 2.5, 5, 10, 20, 40 and 80 μM. The inhibition for HIV-1 by these combinations of drugs was also examined by using p24 assay after 8 days. […] In comparison, cytotoxicity for the three drugs combined to H9 cells was also analyzed using an MTT assay.

HIV-1 = test: Acute HIV-1 infection of H9 cells; assay type: cell-based
Excerpt: (§3) a. Salvia genus of Labiaceae family contains approximately 1000 species. 78 of these are distributed in different regions in China. […] An INi search was established based on an assay-guided purification procedure utilizing different concentrations of methanol, propanol, a two-layer extraction system (low salt water/butanol), and a high resolution inverted phase HPLC (Sperisorb OD S-2).

reverse transcriptase = biological target: T1, reverse transcriptase (Human immunodeficiency virus type 1 group M subtype B, UniProt P04585); test: Reverse transcriptase activity and viral DNA levels in infected cells; assay type: cell-based, HIV
T1 construct: endogenous in cells; host or cells: HIV-infected cells (H9 cells named in the same paragraph)
Excerpt: as §3

HIV = HIV entry in H9 cells; assay type: cell-based; settings: compound by itself
Excerpt: as §3

HIV-1 integrase = HIV-1 integrase (Human immunodeficiency virus type 1 group M subtype B, UniProt P04585); test: HIV-1 integrase catalytic activity of 3'-joining to the target DNA; assay type: biochemical; settings: read-out: IC50, 3′-joining to the target DNA
Excerpt: as §3

[3] = biological target: wild type HIV-1 integrase (Human immunodeficiency virus type 1 group M subtype B, UniProt P04585); test: Disintegration assay; assay type: biochemical; settings: equal efficacy with deletion mutant
Procedure: (§4) To determine whether M522 and M532 are acting against the catalytic core domain specifically, disintegration assay was tested using deletion mutant IN containing only the core domain of HIV integrase. Such deletion mutant is defective for normal integration, but it is capable of catalyzing a reversal of the forward reaction, termed “disintegration”. The disintegration reaction can be assayed by using a deletion mutant HIV-1 integrase (IN^50-212) which lacks both the amino terminal zinc binding and the carboxyl terminal DNA binding domains but remains active in this assay, whereas such truncated IN loses activity in the 3′-processing and joining (strand transfer) assays. So, disintegration assay can be used to probe the site of drug-enzyme binding.

[4] = biological target: deletion mutant HIV-1 integrase (IN^50-212) (Human immunodeficiency virus type 1 group M subtype B, UniProt P04585); test: Disintegration assay; assay type: biochemical; settings: IN^50-212 core domain; equal efficacy with wild type
Procedure: as §4

HSV-2 = test: Mouse vaginal model of HSV-2 infection; assay type: in vivo, female CF-1 mice; settings: 10 mM
Excerpt: P4N was also found to be quite effective.

HIV-1RTMF = test: Drug combination study in H9 cells infected with HIV-1RTMF, p24 assay; assay type: cell-based; settings: Human immunodeficiency virus 1, H9, 192 h
Excerpt: We tested drug combinations against two different cells infected with laboratory strain of HIV-1 RTMF. For these drug combinational studies, both the H9 cells and human PBMC have been used. We first tested how our inhibitors affect one specific strain of HIV which is resistant to drug against RT (HIV-1RTMF). Briefly H9 (1×10^5/ml) were infected with HIV-1RTMF strain with a multiplicity of infection of 0.1. These cells were further tested with three drugs, M522, Gen-1 and G4N, either in combination or separately (8, 10, 21B). After 4-day incubation at 37° C., H9 cells were subcultured with fresh culture medium containing appropriate concentrations 0, 1.25, 2.5, 5, 10, 20, 40 and 80 μM of each of the drugs, or of a combination of all three of the drugs, each at the indicated concentration. The inhibition for HIV-1 by these combinations of drugs was examined using p24 assay after 8 days.
as §2

C[C@@H]1O[C@@H](O[C@@H]2[C@@H](O)[C@H](O[C@@H]3[C@@H](O)[C@@H](O)[C@H](O[C@H]4[C@H](OC(=O)[C@]56CCC(C)(C)C[C@H]5C5=CC[C@@H]7[C@@]8(C)C[C@H](O)[C@H](O[C@@H]9O[C@H](CO)[C@@H](O)[C@H](O)[C@H]9O)[C@@](C)(CO)[C@@H]8[C@H](O)C[C@@]7(C)[C@]5(C)C[C@H]6O)OC[C@H](O)[C@@H]4O)O[C@H]3C)OC[C@H]2O)[C@H](O)[C@H](O)[C@H]1O [Rev.1, arganine C]
hemolytic effect (red blood cells; effective drug concentrations that blocked viral entry): hemolytic
antiviral entry activity (wild type HIV-1 envelope): strongly inhibited
IC50 (wild type HIV-1 envelope; HIV-based cell-cell fusion assay (FIG. 1), read-out: IC50): 2.8 µM
inhibition of attachment (HIV particles): dose-dependent inhibition of attachment

CC(Cc1ccc(O)c(O)c1)C(C)Cc1ccc(O)c(O)c1 (stereo not shown) [NDGA, nordihydroguaiaretic acid, reference compound]
inhibition of HIV transcription (HIV transcription): does not inhibit HIV transcription
effect on Sp1 binding [1]: no effect on Sp1 binding

CC1(C)CC[C@]2(C(=O)O)[C@H](O)C[C@]3(C)C(=CC[C@@H]4[C@@]5(C)C[C@H](O)[C@H](O[C@@H]6O[C@H](C(=O)O)[C@@H](O)[C@H](O)[C@H]6O)[C@@](C)(CO)[C@@H]5[C@H](O)C[C@]43C)[C@@H]2C1 [A-GEN, 16α-hydroxyprotobassic acid 3-0-β-D-glucuronopyranoside]
antiviral entry activity (wild type HIV-1 envelope): total loss of antiviral entry activity
inhibition of attachment (HIV particles): totally devoid of activity

O=C(/C=C/c1ccc(O)c2c1[C@H](C(=O)O[C@H](Cc1ccc(O)c(O)c1)C(=O)O)[C@@H](c1ccc(O)c(O)c1)O2)O[C@H](Cc1ccc(O)c(O)c1)C(=O)O [M532, lithospermic acid B]
syncytia formation [2]: syncytia formation was prevented
CC100 (highest concentration tested, cells remained viable) (H9 cells): 160 µg/mL
IC50 (HIV-1): 6.9 µM
levels of intracellular strong stop and full-length viral DNA (reverse transcriptase; following drug treatment): remained unchanged
inhibition of reverse transcriptase activity (reverse transcriptase; infected cells): no inhibition of reverse transcriptase activity
prevention of HIV entry (HIV): Neither M522 nor M532 by itself prevents HIV entry
IC50 (HIV-1 integrase): 0.37 µM
inhibition of disintegration [3]: inhibited
inhibition of disintegration [4]: inhibited

CC1(C)CC[C@]2(C(=O)O)[C@H](O)C[C@]3(C)C(=CC[C@@H]4[C@@]5(C)C[C@H](O)[C@H](O[C@@H]6O[C@H](CO)[C@@H](O)[C@H](O)[C@H]6O)[C@@](C)(CO)[C@@H]5[C@H](O)C[C@]43C)[C@@H]2C1 [A-REV, 16α-hydroxyprotobassic 3-0-β-D-glycopyransoide]
antiviral entry activity (wild type HIV-1 envelope): total loss of antiviral entry activity

COc1cc(C[C@H](C)[C@H](C)Cc2ccc(O)c(O)c2)ccc1O [3′-O-methyl NDGA]
inhibition of HIV transcription (HIV transcription): specifically block HIV transcription

C[C@H](Cc1ccc(OCCN2CCCCC2)c(OCCN2CCCCC2)c1)[C@@H](C)Cc1ccc(OCCN2CCCCC2)c(OCCN2CCCCC2)c1 [P4N]
average scale (HSV-2): 0.19
animals infected (HSV-2; 10 mice per group): 2 of 10
effect on Sp1 binding [1]: disrupt Sp1 transcription factor binding

C[C@@H]1O[C@@H](O[C@@H]2[C@@H](O)[C@H](O[C@@H]3[C@@H](O)[C@@H](O)[C@H](O[C@H]4[C@H](OC(=O)[C@]56CCC(C)(C)C[C@H]5C5=CC[C@@H]7[C@@]8(C)C[C@H](O)[C@H](O[C@@H]9O[C@H](C(=O)O)[C@@H](O)[C@H](O)[C@H]9O)[C@@](C)(CO)[C@@H]8[C@H](O)C[C@@]7(C)[C@]5(C)C[C@H]6O)OC[C@H](O)[C@@H]4O)O[C@H]3C)OC[C@H]2O)[C@H](O)[C@H](O)[C@H]1O [Gen-1, Tieghemelin]
hemolytic effect (red blood cells): hemolytic
red blood cells lysed (red blood cells; 57 μM): 50%
IC50 (HIV-1RTMF): 40 µM
antiviral entry activity (wild type HIV-1 envelope): less potent
IC50 (wild type HIV-1 envelope; Human immunodeficiency virus 1): 17 µM
inhibition of attachment (HIV particles): dose-dependent inhibition of attachment
